Our source for the Activity values is ChEMBL document CHEMBL1649487, “Molecular characteristics of travel-related extended-spectrum-beta-lactamase-producing Escherichia coli isolates from the Calgary Health Region” (2009).

What all share (type): functional
Assay [1] relates to Escherichia coli. The assay is described as follows: Antimicrobial activity against Extended-spectrum beta-lactamase producing Escherichia coli clinical isolate assessed as resistant isolate in presence of beta-lactamase inhibitor Tazobactam.
Assay [2] deals with Escherichia coli. The assay is described as follows: Antimicrobial activity against Extended-spectrum beta-lactamase producing Escherichia coli clinical isolate assessed as resistant isolate.
Assay [3] deals with Escherichia coli. The assay is described as follows: Antimicrobial activity against Extended-spectrum beta-lactamase producing Escherichia coli clinical isolate assessed as resistant isolate in presence of beta-lactamase inhibitor clavulanic acid.

Take `CCN1CCN(C(=O)N[C@@H](C(=O)N[C@@H]2C(=O)N3[C@@H]2SC(C)(C)[C@@H]3C(=O)O)c2ccccc2)C(=O)C1=O` [PIPERACILLIN]: in assay [1], the Activity turned out to be 47%.

Turning to `NCC[C@H](O)C(=O)N[C@@H]1C[C@H](N)[C@@H](O[C@H]2O[C@H](CN)[C@@H](O)[C@H](O)[C@H]2O)[C@H](O)[C@H]1O[C@H]1O[C@H](CO)[C@@H](O)[C@H](N)[C@H]1O` [AMIKACIN], in assay [2], the Activity is 1%.

Turning to `CC1(C)S[C@@H]2[C@H](NC(=O)[C@H](N)c3ccc(O)cc3)C(=O)N2[C@H]1C(=O)O` [AMOXICILLIN], in assay [3], the Activity came out at 74%.

For GENTAMICIN, in assay [2], the Activity was 42%.

With `NC[C@H]1O[C@H](O[C@H]2[C@H](O)[C@@H](O[C@H]3O[C@H](CO)[C@@H](O)[C@H](N)[C@H]3O)[C@H](N)C[C@@H]2N)[C@H](N)C[C@@H]1O` [TOBRAMYCIN], the Activity in assay [2] was found to be 50%.

On to `O=C1CN(/N=C/c2ccc([N+](=O)[O-])o2)C(=O)N1` [NITROFURANTOIN], for which the Activity in assay [2] was 7%.
